The source of these data is patent US8269017B2, “Compounds for the treatment of proliferative disorders” (Synta Pharmaceuticals Corporation, priority 2005, dated 2012).

The structures appear in SMILES notation. Read-outs that look alike come from different tables or passages of the source.

For one assay, the system named is MES-SA (uterine sarcoma). As to the kind of experiment: In vitro cytotoxicity, MTS assay, MES-SA. Format: cell-based, human. Conditions: Homo sapiens, MES-SA (Uterine Carcinoma). How it is done: (§1) The in vitro cytotoxicity of the compounds of the invention was determined in the following human cell lines: HL-60 (T-cell leukemia), MDA-435 and MCF-7 (human breast carcinoma), NCI-H460 and H29 (colon carcinoma), DU145 (prostate carcinoma), and MES-SA and MES-SA/DX5 (uterine sarcoma). MES-SA is a model of uterine sarcoma, and the cell are sensitive to a number of chemotherapeutic agents including doxorubicin, dactinomycin, mitomycin C, taxol and bleomycin, but resistant to vinblastine and cisplatin. MES-SA/Dx5 was established in the presence of increasing concentrations of doxorubicin. […] All cells were purchased from ATCC.
(§2) The cell lines were maintained in RPMI1640 (GIBCO) supplemented with 10% FCS, 100 units/mL penicillin, 100 ug/ml streptomycin, and 2 mM L-glutamine. Cells were split every third day and diluted to a concentration of 2×10^5 cells/mL one day before the experiment was performed. All experiments were performed on exponentially growing cell cultures. Cell densities were 2.5×10^4 cells/mL in all experiments.
(§3) Compounds of the invention were prepared by dissolving the compound at a concentration of 10 mM in 100% DMSO. Final concentrations 10, 1, 0.1, 0.01 and 0.001 μM were obtained by diluting the stock solution directly into the tissue culture medium.
A general note: Tetrazolium dyes change colour on reduction, which living cells bring about.

A further assay concerns HL-60 (T-cell leukemia). As to the kind of experiment: In vitro cytotoxicity, MTS assay, HL-60. Conditions: Homo sapiens. Format: cell-based, human. As for the experimental part: as §1, §2, §3
The test system of assay [1] is primary human umbilical vein endothelium cells (HUVEC cells). As to the kind of experiment: Microtubule depolymerization in HUVEC cells (anti-tubulin immunofluorescence). The class given is cell-based. Conditions: 24 hr. How it is done: (§4) Depolymerizing microtubules not only kills dividing tumor cells but also induces disruption of newly generated blood vessels in tumor. The potency of Compound 249 in depolymerizing microtubules was examined in Africa green monkey kidney fibroblasts (CV1 cells) and primary human umbilical vein endothelium cells (HUVEC cells). The cells were treated with drugs (1, 10, 100, and 1000 nM for CV-1 and 1, 5, 10, 50, 100 nM for HUVEC) for 24 hr and fixed with 3% paraformaldehyde followed by cold methanol treatment to preserve both microtubule structures and depolymerized tubulin in the cytoplasm. The cells were stained with anti-tubulin antibody and subsequently fluorescent conjugated secondary antibody to visualize microtubule networks or cytoplasmic tubulin with fluorescent microscopy. As shown in FIG. 20 and FIG. 21, Compound 249 completely depolymerizes MT in a considerable proportion of CV1 cells at 10 nM and HUVEC cells at 1 nM (about 10% for both cell lines; data not shown). At 100 nM for CV1 and 5 nM for HUVEC cells, microtubules were completely depolymerized in nearly 100% cells. Tubulin staining in these cells was shown as cytoplasmic location and no microtubule structures were found in those cells. […] Compound 249 is a potent microtubule depolymerizing drug and HUVEC cells are extremely sensitive to Compound 249's anti-microtubule effect.

The subject of assay [2] is MES-SA/DX5 (uterine sarcoma, MDR-1). As to the kind of experiment: cells. Format: cell-based. The following applies: Homo sapiens, MES/DX5 (MDR-1), MTS assay. As for the experimental part: as §1, §2, §3
Assay [3] deals with Africa green monkey kidney fibroblasts (CV1 cells). As to the kind of experiment: Microtubule depolymerization in CV-1 cells (anti-tubulin immunofluorescence). Format: cell-based. Conditions: 24 hr. As for the experimental part: as §4
The subject of a further assay is MDA-435. The assay can be described thus: Cytotoxicity in MDA-435 tumor cells (Cell Counting Kit 8). Format: cell-based. Conditions: Homo sapiens, MDA435, MDA-435 cells, 70 h. As for the experimental part:
Tumor cell line, MDA-435, was seeded in 96-well plates at 1×10^4 cells/well in DMEM medium and treated with compounds at different concentrations. Taxol was used as a positive control. The cells were incubated at 37° C. for 70 h. Viability of the cells was measured with Cell Counting Kit 8 (Dojindo, Cat #CK04). IC50 of the compounds was determined by Five-Parameter Logistic equation.

Assay [4] concerns MCF-7 (human breast carcinoma). The assay can be described thus: In vitro cytotoxicity, MTS assay, MCF-7. The class given is cell-based. The following applies: MCF7, MCF-7 (Breast Cancer), 72 hours. As for the experimental part:
as §1, §2, §3

The subject of assay [5] is α-tubulin-YFP labeled microtubules in MCF7-α-tubulin-YFP cells. The assay can be described thus: Inhibition of tubulin polymerization in α-tubulin-YFP expressing cells (fluorescence imaging). Format: cell-based. Conditions: MCF7-α-tubulin-YFP cells treated with 0.1 μM Taxol.
Description: Living cells were examined using a fluorescent microscope for α-tubulin-YFP expression.
CHO-α-tubulin-YFP or MCF7-α-tubulin-YFP cells were cultured in 2-well chambered cover-slips (Labtek (Campbell, Calif.) or Fisher Scientific) for 24 hours before treatment with a compound of the invention. For comparison of the effects of treatment on α-tubulin-YFP labeled microtubules with the compounds of the invention, CHO-α-tubulin-YFP or MCF7-α-tubulin-YFP cells were treated with the a compound of the invention, Taxol or equivalent concentrations of DMSO-containing media for various time periods before imaging. Tubulin-YFP fluorescence in living cells or fixed cells was captured using a standard filter for FITC and objectives of 20× or 60× magnification on a Nikon TE300 microscope with a Leica DC50 color digital camera (Leica, Bannockburn, Ill.) or a CoolSnap HQ monochrome CCD camera (Photonetrics, Tucson, Ariz.). The Leica DC50 and CoolSnapHQ cameras were controlled with Leica DC50 software and MetaVue/MetaMorph software, respectively (Universal Imaging Corp, Downingtown, Pa.).
Assay [6] has as its system NCI-H460 (colon carcinoma). As to the kind of experiment: In vitro cytotoxicity, MTS assay, NCI-H460. The class given is cell-based. The following applies: Homo sapiens, 72 hours. As for the experimental part: as §1, §2, §3
In another assay the test system is SB cells. As to the kind of experiment: Induction of apoptosis in SB cells (Annexin V/PI, FACS). Format: cell-based. Conditions: 24 h. How it is done:
SB cells (2×10^5 cells/mL) were cultured in 12-well plates (2 mL/well) and were left untreated (negative control), treated with Taxol (positive control), or treated with a compound of the invention for 24 h at 37° C. After treatment, the cells were washed one time with 1×PBS and stained with FITC labeled anti-Annexin V and PI (10 μg/ml) for 15 min at room temperature. The cells were analyzed by FACSCalibur (Becton Dickinson).

The next assay relates to MDA-435 cells. As to the kind of experiment: Cell cycle analysis in MDA-435 cells. Conditions: 20 h, Taxol 30 nM, Comp. 1 100 nM, Comp. 2 500 nM, Comp. 3 10 nM, Comp. 6 800 mM (so in the source), Comp. 46 50 nM. The class given is cell-based, human. How it is done:
MDA-435 cells were cultured in 6-well plates at 1×10^6 cells/well and were untreated (negative control), treated with Taxol (positive control), or treated with a compound of the invention at 37° C. for 20 h. The cells were detached with 1× trypsin and washed one time with PBS. Cycle TEST PLUS kit (BD PharMingen, Cat #340242) was used to stain the cells. Cell cycle was analyzed with FACScomp program (BS PharMingen).

The subject of assay [7] is DU145 (prostate carcinoma). The assay can be described thus: In vitro cytotoxicity, MTS assay, DU145. Format: cell-based. Conditions: Homo sapiens, DU-145, 72 hours. How it is done:
as §1, §2, §3

A further assay has as its system H29 (colon carcinoma). The assay can be described thus: In vitro cytotoxicity, MTS assay, H29. The class given is cell-based. Conditions: Homo sapiens, 72 hours. How it is done:
as §1, §2, §3

The subject of assay [8] is MDA-435 (human breast carcinoma). The assay can be described thus: In vitro cytotoxicity, MTS assay, MDA-435. The class given is cell-based. The following applies: MDA435, MDA-435 (Breast Cancer), 72 hours. How it is done: as §1, §2, §3
Assay [9] has as its system human tumor cell line MDA-MB-435S. The assay can be described thus: Nude mouse xenograft, MDA-MB-435S (Example 9). The class given is in vivo. Conditions: i.v., 3 times per week. As for the experimental part: FBS was obtained from ATCC and all other reagents were obtained from Invitrogen Corp. (Carlsbad, Calif., USA). […] To inactivate the trypsin, 5 mL of growth media was added and then the contents of the flask were centrifuged to pellet the cells. The supernatant was aspirated and the cell pellet was resuspended in 10 mL of growth media and the cell number determined using a hemocytometer.
Animals were housed 4-5/cage in micro-isolators, with a 12 hr/12 hr light/dark cycle, acclimated for at least 1 week prior to use and fed normal laboratory chow ad libitum.

For `COc1ccc(-c2cnoc2-c2cc(OC)c(OC)c(OC)c2)cc1N` [Compound 249, 2-methoxy-5-(5-(3,4,5-trimethoxyphenyl)isoxazol-4-yl)aniline], the IC50 – broadly, the midpoint of a concentration-inhibition curve – stood at 1 nM with MES-SA (uterine sarcoma) (MES-SA, 72 h); 1 nM with HL-60 (T-cell leukemia) (HL-60, 72 h, HL60 (Leukemia)); 1 nM in assay [2] (MDR1, 72 h). Besides, the microtubule structure entry in assay [1] (1 nM) is “Fragmented microtubules were found”. Further, the “proportion of cells with completely depolymerized microtubules” value in [1] (1 nM) is “about 10%”; in [1] (5 nM), ~100%; in assay [3] (10 nM), “about 10%”; in assay [3] (100 nM) it was ~100%.

As for `CC(=O)O[C@H]1C(=O)[C@@]2(C)[C@H]([C@H](OC(=O)c3ccccc3)[C@]3(O)C[C@H](OC(=O)[C@H](O)[C@@H](NC(=O)c4ccccc4)c4ccccc4)C(C)=C1C3(C)C)[C@]1(OC(C)=O)CO[C@@H]1C[C@@H]2O` [Taxol, reference compound], the IC50 in the assay with MDA-435 stood at 16 nM; in [4], 5 nM; in the assay on MES-SA (uterine sarcoma) (72 hours, read-out: IC50) it was 5 nM; in the assay with HL-60 (T-cell leukemia) (HL-60, HL60 (Leukemia), 72 hours, read-out: IC50), 5 nM; in assay [6], 5 nM; in assay [7] it was 5 nM. The IC50 in [2] (MDR1, 72 hours, read-out: IC50) came out at 10000 nM; in the assay with H29 (colon carcinoma) it was 10 nM; in assay [8], 2 nM. Moreover, the “Tubulin-YFP signal pattern in live cells” value in assay [5] is given as “microtubule bundle formation”. Moreover, the “% Apoptotic Cells Gated” value with SB cells (1 μM) is on record as 17.84%. Besides, the cytotoxicity at 1 µM in the assay on SB cells (read-out: % Dead Cells Gated) amounted to 12.5%. In addition, in the assay with SB cells (read-out: % Live Cells Gated), the viability at 1 µM was 63.7%. For the same molecule, in the assay with MDA-435 cells, the “Apoptotic Population (%)” value is given as 16.17%. The “G0/G1 Phase (%)” value in the assay with MDA-435 cells is recorded as 19.12%. Further, the “G2/M Phase (%)” value in the assay with MDA-435 cells came out at 32.32%. Moreover, the “S Phase (%)” value in the assay with MDA-435 cells is 32.93%.

As for `CC(=O)O[C@H]1C(=O)[C@@]2(C)[C@H]([C@H](OC(=O)c3ccccc3)[C@]3(O)C[C@H](OC(=O)[C@H](O)[C@@H](NC(=O)c4ccccc4)c4ccccc4)C(C)=C1C3(C)C)[C@]1(OC(C)=O)CO[C@@H]1C[C@@H]2O` [paclitaxel, Paclitaxel], the tumor regression result in [9] (paclitaxel at 7.5 mg/kg body weight, 10 doses) was “did not”. Also, in assay [9] (paclitaxel at 7.5 mg/kg), the “tumor growth compared to vehicle” value was “decreased tumor growth”.
